Assay results from PubChem BioAssay AID1259407 (Chemical Carcinogenesis Research Information System (CCRIS), 2018).
Calls of active or inactive are those of the source. The rule behind the calls is not given here.

Test system: CCRIS mutagenicity, Ames/micronucleus/aberration tests
Assay: CCRIS mutagenicity studies
[1] = Test System: AMES SALMONELLA TYPHIMURIUM, Strain/Indicator: TA100, Metabolic Activation: NONE, Method: STANDARD PLATE
[2] = Test System: AMES SALMONELLA TYPHIMURIUM, Strain/Indicator: TA1535, Metabolic Activation: NONE, Method: STANDARD PLATE

CCC1NC(=O)c2cc(S(N)(=O)=O)c(Cl)cc2N1 (stereo not given) was tested, and the mutagenic call (Test System: AMES SALMONELLA TYPHIMURIUM, Strain/Indicator: TA97, Metabolic Activation: HAMSTER, LIVER, S-9, AROCLOR 1254 (10%), Method: PREINCUBATION) was “inactive; negative”, the mutagenic call (Test System: AMES SALMONELLA TYPHIMURIUM, Strain/Indicator: TA97, Metabolic Activation: HAMSTER, LIVER, S-9, AROCLOR 1254 (30%), Method: PREINCUBATION) was “inactive; negative” and the mutagenic call (Test System: AMES SALMONELLA TYPHIMURIUM, Strain/Indicator: TA97, Metabolic Activation: NONE, Method: PREINCUBATION) was “inactive; negative”. For the same compound, the mutagenic call (Test System: AMES SALMONELLA TYPHIMURIUM, Strain/Indicator: TA97, Metabolic Activation: RAT, LIVER, S-9, AROCLOR 1254 (10%), Method: PREINCUBATION) was “inactive; negative”, the mutagenic call (Test System: AMES SALMONELLA TYPHIMURIUM, Strain/Indicator: TA97, Metabolic Activation: RAT, LIVER, S-9, AROCLOR 1254 (30%), Method: PREINCUBATION) was “inactive; negative” and the mutagenic call (Test System: AMES SALMONELLA TYPHIMURIUM, Strain/Indicator: TA98, Metabolic Activation: HAMSTER, LIVER, S-9, AROCLOR 1254 (10 OR 30%), Method: PREINCUBATION) was “inactive; negative”. The mutagenic call (Test System: AMES SALMONELLA TYPHIMURIUM, Strain/Indicator: TA98, Metabolic Activation: NONE, Method: PREINCUBATION) was “inactive; negative”, the mutagenic call (Test System: AMES SALMONELLA TYPHIMURIUM, Strain/Indicator: TA98, Metabolic Activation: RAT, LIVER, S-9, AROCLOR 1254 (10 OR 30%), Method: PREINCUBATION) was “inactive; negative” and the mutagenic call (Test System: AMES SALMONELLA TYPHIMURIUM, Strain/Indicator: TA100, Metabolic Activation: HAMSTER, LIVER, S-9, AROCLOR 1254 (5 OR 10%), Method: PREINCUBATION) was “inactive; negative”. The mutagenic call (Test System: AMES SALMONELLA TYPHIMURIUM, Strain/Indicator: TA100, Metabolic Activation: HAMSTER, LIVER, S-9, AROCLOR 1254 (30%), Method: PREINCUBATION) was “inactive; negative”, the mutagenic call (Test System: AMES SALMONELLA TYPHIMURIUM, Strain/Indicator: TA100, Metabolic Activation: NONE, Method: PREINCUBATION) was “inactive; negative” and the mutagenic call (Test System: AMES SALMONELLA TYPHIMURIUM, Strain/Indicator: TA100, Metabolic Activation: RAT, LIVER, S-9, AROCLOR 1254 (5 OR 10%), Method: PREINCUBATION) was “inactive; negative”. For the same compound, the mutagenic call (Test System: AMES SALMONELLA TYPHIMURIUM, Strain/Indicator: TA100, Metabolic Activation: RAT, LIVER, S-9, AROCLOR 1254 (30%), Method: PREINCUBATION) was “inactive; negative”, the mutagenic call (Test System: AMES SALMONELLA TYPHIMURIUM, Strain/Indicator: TA1535, Metabolic Activation: HAMSTER, LIVER, S-9, AROCLOR 1254 (10 OR 30%), Method: PREINCUBATION) was “inactive; negative” and the mutagenic call (Test System: AMES SALMONELLA TYPHIMURIUM, Strain/Indicator: TA1535, Metabolic Activation: NONE, Method: PREINCUBATION) was “inactive; negative”. The mutagenic call (Test System: AMES SALMONELLA TYPHIMURIUM, Strain/Indicator: TA1535, Metabolic Activation: RAT, LIVER, S-9, AROCLOR 1254 (10 OR 30%), Method: PREINCUBATION) was “inactive; negative”.

In the case of Cl/C=C\CCl, the mutagenic call [1] is reported as “active; positive”, the mutagenic call (Test System: AMES SALMONELLA TYPHIMURIUM, Strain/Indicator: TA100, Metabolic Activation: RAT, LIVER, S-9, AROCLOR 1254, Method: STANDARD PLATE) is reported as “active; positive” and the mutagenic call [2] is reported as “active; positive”. The mutagenic call (Test System: AMES SALMONELLA TYPHIMURIUM, Strain/Indicator: TA1535, Metabolic Activation: RAT, LIVER, S-9, AROCLOR 1254, Method: STANDARD PLATE) was “active; positive”, the mutagenic call (Test System: AMES SALMONELLA TYPHIMURIUM, Strain/Indicator: TA1978, Metabolic Activation: NONE, Method: STANDARD PLATE) was “active; positive” and the mutagenic call (Test System: AMES SALMONELLA TYPHIMURIUM, Strain/Indicator: TA1978, Metabolic Activation: RAT, LIVER, S-9, AROCLOR 1254, Method: STANDARD PLATE) was “active; positive”.

C=COC(N)=O was tested, and the mutagenic call (End Point: In vivo micronucleus, Test System: Peripheral blood reticulocytes, Species: Mouse, Strain/Sex: F1 (Big Blue x A/J) transgenic/Male and female, Route: Intraperitoneal) was “active; positive” and the mutagenic call (Test System: UDS MOUSE SPERMATIDS, Strain/Indicator: THY INCORP, Metabolic Activation: NONE) was “active; positive”.

In the case of C, the mutagenic call (End Point: In vitro chromosomal aberrations, Test System: Chinese hamster V79 lung fibroblast cells, Metabolic Activation: Rat, Liver, S9, Aroclor 1254) is reported as “inactive; negative. material tested was baytubes, multi-walled carbon-nanotubes”, the mutagenic call (Test System: Ames Salmonella typhimurium, Strain/Indicator: TA98, Metabolic Activation: None, Method: Preincubation) is reported as “inactive; negative. material tested was baytubes, multi-walled carbon-nanotubes” and the mutagenic call (Test System: Ames Salmonella typhimurium, Strain/Indicator: TA98, Metabolic Activation: Rat, Liver, S9, Aroclor 1254, Method: Preincubation) is reported as “inactive; negative. material tested was baytubes, multi-walled carbon-nanotubes”. For the same compound, the mutagenic call (Test System: Ames Salmonella typhimurium, Strain/Indicator: TA100, Metabolic Activation: None, Method: Preincubation) was “inactive; negative. material tested was baytubes, multi-walled carbon-nanotubes”, the mutagenic call (Test System: Ames Salmonella typhimurium, Strain/Indicator: TA100, Metabolic Activation: Rat, Liver, S9, Aroclor 1254, Method: Preincubation) was “inactive; negative. material tested was baytubes, multi-walled carbon-nanotubes” and the mutagenic call (Test System: Ames Salmonella typhimurium, Strain/Indicator: TA102, Metabolic Activation: None, Method: Preincubation) was “inactive; negative. material tested was baytubes, multi-walled carbon-nanotubes”. The mutagenic call (Test System: Ames Salmonella typhimurium, Strain/Indicator: TA102, Metabolic Activation: Rat, Liver, S9, Aroclor 1254, Method: Preincubation) was “inactive; negative. material tested was baytubes, multi-walled carbon-nanotubes”, the mutagenic call (Test System: Ames Salmonella typhimurium, Strain/Indicator: TA1535, Metabolic Activation: None, Method: Preincubation) was “inactive; negative. material tested was baytubes, multi-walled carbon-nanotubes” and the mutagenic call (Test System: Ames Salmonella typhimurium, Strain/Indicator: TA1535, Metabolic Activation: Rat, Liver, S9, Aroclor 1254, Method: Preincubation) was “inactive; negative. material tested was baytubes, multi-walled carbon-nanotubes”. The mutagenic call (Test System: Ames Salmonella typhimurium, Strain/Indicator: TA1537, Metabolic Activation: None, Method: Preincubation) was “inactive; negative. material tested was baytubes, multi-walled carbon-nanotubes” and the mutagenic call (Test System: Ames Salmonella typhimurium, Strain/Indicator: TA1537, Metabolic Activation: Rat, Liver, S9, Aroclor 1254, Method: Preincubation) was “inactive; negative. material tested was baytubes, multi-walled carbon-nanotubes”.

CC[C@H](C)[C@H](NC(=O)[C@H](Cc1ccc(O)cc1)NC(=O)CNC(=O)[C@@H](NC(=O)[C@@H](NC(=O)[C@H](CS)NC(=O)[C@H](CC(N)=O)NC(=O)[C@H](CS)NC(=O)[C@H](C)NC(=O)[C@H](Cc1ccc(O)cc1)NC(=O)[C@H](CCCCN)NC(=O)[C@H](CC(=O)O)NC(=O)[C@H](CC(C)C)NC(=O)[C@H](C)NC(=O)[C@H](CCC(=O)O)NC(=O)[C@@H](NC(=O)[C@H](Cc1ccc(O)cc1)NC(=O)[C@H](CCSC)NC(=O)[C@H](CS)NC(=O)[C@@H](NC(=O)CNC(=O)[C@H](CC(=O)O)NC(=O)[C@H](Cc1cnc[nH]1)NC(=O)[C@H](CC(C)C)NC(=O)[C@H](CS)NC(=O)[C@H](Cc1ccc(O)cc1)NC(=O)CNC(=O)[C@H](CC(=O)O)NC(=O)[C@H](Cc1cnc[nH]1)NC(=O)[C@H](CO)NC(=O)[C@H](CC(C)C)NC(=O)[C@@H]1CCCN1C(=O)[C@H](CS)NC(=O)[C@H](CCC(=O)O)NC(=O)[C@H](CO)NC(=O)[C@H](CC(=O)O)NC(=O)[C@H](CO)NC(=O)[C@@H](N)CC(N)=O)C(C)C)[C@@H](C)CC)C(C)C)C(C)C)C(=O)NCC(=O)N[C@@H](CCC(=O)O)C(=O)N[C@@H](CCCNC(=N)N)C(=O)N[C@@H](CS)C(=O)N[C@@H](CCC(N)=O)C(=O)N[C@@H](Cc1ccc(O)cc1)C(=O)N[C@@H](CCCNC(=N)N)C(=O)N[C@@H](CC(=O)O)C(=O)N[C@@H](CC(C)C)C(=O)N[C@@H](CCCCN)C(=O)N[C@@H](Cc1c[nH]c2ccccc12)C(=O)N[C@@H](Cc1c[nH]c2ccccc12)C(=O)N[C@@H](CCC(=O)O)C(=O)N[C@@H](CC(C)C)C(=O)N[C@@H](CCCNC(=N)N)C(=O)O was tested, and the mutagenic call (Test System: AMES SALMONELLA TYPHIMURIUM, Strain/Indicator: TA98, Metabolic Activation: NONE, Method: STANDARD PLATE) was “inactive; negative”, the mutagenic call (Test System: AMES SALMONELLA TYPHIMURIUM, Strain/Indicator: TA98, Metabolic Activation: RAT, LIVER, S-9, PHENOBARBITAL AND 5,6-BENZOFLAVONE, Method: STANDARD PLATE) was “inactive; negative” and the mutagenic call [1] was “inactive; negative”. For the same compound, the mutagenic call (Test System: AMES SALMONELLA TYPHIMURIUM, Strain/Indicator: TA100, Metabolic Activation: RAT, LIVER, S-9, PHENOBARBITAL AND 5,6-BENZOFLAVONE, Method: STANDARD PLATE) was “inactive; negative”, the mutagenic call [2] was “inactive; negative” and the mutagenic call (Test System: AMES SALMONELLA TYPHIMURIUM, Strain/Indicator: TA1535, Metabolic Activation: RAT, LIVER, S-9, PHENOBARBITAL AND 5,6-BENZOFLAVONE, Method: STANDARD PLATE) was “inactive; negative”. For the same compound, the mutagenic call (Test System: AMES SALMONELLA TYPHIMURIUM, Strain/Indicator: TA1537, Metabolic Activation: NONE, Method: STANDARD PLATE) was “inactive; negative”, the mutagenic call (Test System: AMES SALMONELLA TYPHIMURIUM, Strain/Indicator: TA1537, Metabolic Activation: RAT, LIVER, S-9, PHENOBARBITAL AND 5,6-BENZOFLAVONE, Method: STANDARD PLATE) was “inactive; negative” and the mutagenic call (Test System: E. COLI, Strain/Indicator: WP2 UVRA, Metabolic Activation: NONE, Method: STANDARD PLATE) was “inactive; negative”. For the same compound, the mutagenic call (Test System: E. COLI, Strain/Indicator: WP2 UVRA, Metabolic Activation: RAT, LIVER, S-9, PHENOBARBITAL AND 5,6-BENZOFLAVONE, Method: STANDARD PLATE) was “inactive; negative”.
